These are literature values, as cited in publication PMC7135267, “Modified linear regression predicts drug-target interactions accurately” (PLoS ONE, 2020).

The test system of this series is CFTR. The note with it: rats, caffeine intake.

In the case of `Cn1c(=O)c2c(ncn2C)n(C)c1=O` [D00528, Caffeine], the “CFTR chloride secretion in intestine” value is listed as “increased”.
